Entries after “also recorded” stand apart in the source; their conditions may differ. No end group written: not given here.

This is an account of results in paper PMC2867956, “Interdomain Interactions Control Ca^2+-Dependent Potentiation in the Cation Channel TRPV4” (PLoS ONE, 2010).

One series relates to TRPV4 C2 fragment. The series is described as follows: AlphaScreen interdomain interaction with C2. The class given is binding, human. The settings on record: 10 nM C2-biotin, N2-Flag 30 pM to 1.5 µM, N3 data not shown. From the text:
(§1) First, we did a complementation experiment to test whether a CaM molecule that binds to the C2 fragment of TRPV4 through its C-lobe can form an additional interaction with another CaM binding domain thus forming a ternary complex. […] We used an AlphaScreen-based proximity assay (Fig. 2, Methods S1) in which the acceptor beads were coated with the C-terminal fragment C2-Flag, and the donor beads either with the N-terminal CaM binding peptide P2-biotin, or, as a negative control, with C2-biotin. The interaction between the proteins was measured in the presence of increasing CaM concentrations in 100 µM Ca^2+ or 1 mM EGTA (Fig. 3A).
In an AlphaScreen interaction experiment, donor and acceptor beads were incubated with 10 nM C2-biotin and N2-Flag at concentrations ranging from 30 pM to 1.5 µM, respectively (Fig. 3C).
(§2) Proteins were expressed in E. coli, affinity purified and biotinylated if applicable (for details see Methods S1). For protein interaction measurements, a proximity assay system based on the AlphaScreen technology (PerkinElmer) was used (see Methods S1). Briefly, streptavidin-coated AlphaScreen donor and anti-Flag acceptor beads at a final concentration of 16.7 µg/ml were incubated in a 384-well plate format (OptiPlate-384, PerkinElmer) with C2-GST-biotin or P2-biotin and the respective Flag-tagged interaction protein at concentrations of 10 nM, if not otherwise indicated. Assay buffer conditions were 50 mM Tris, pH 7.4, 100 mM KCl, and 0.1% BSA. After incubation for 90 min at room temperature, the AlphaScreen output signal was recorded in a Fusion alpha FP instrument (PerkinElmer) at 2 s reading time per well. AlphaScreen signals are given as mean±SEM in counts per second (cps) units.
The expression plasmids containing the cDNA for CaM or TRPV4 fragments in the pGEX-2TK vector (Amersham) or a modified derivative that contains an in-frame Flag epitope 5’ to the multiple cloning site were transformed into the BL21(DE3) Escherichia coli host, and protein expression was induced by 200 mg/ml IPTG at an OD600 of 0.6. […] The GST-Flag fusion proteins were eluted with 50 mM Tris, pH 8.5, 100 mM KCl, and 10 mM glutathione. […] The purity of all proteins was confirmed by SDS-polyacrylamide gel electrophoresis and Coomassie staining, and the protein concentration determined by the method according to Bradford using an albumin concentration standard. […]
To establish an improved interaction assay, that allows the quantification of protein interactions on a medium to high throughput scale, a commercially available proximity assay system based on the AlphaScreen (Amplified Luminescent Proximity Homogenous Assay) technology (PerkinElmer) was modified. […]
A general note: Bead proximity is the source of the signal in Alpha formats.

The test system of another series is P2/C2 complex. The series is described as follows: AlphaScreen competition, C2-Flag/P2-biotin complex. It is filed as binding, human. Particulars: read-out: IC50, competition of P2/C2 complex; C2-Flag and P2-biotin; untagged competitor; AlphaScreen pH 7.4, 90 min room temperature.
From the text: as §1
(§3) AlphaScreen acceptor and donor beads were coated with C2-Flag and either P2-biotin (Fig. 7D) or CaM-biotin at 100 µM Ca^2+ (Fig. 7E) and incubated with untagged C2 or N2 competitor proteins at the indicated concentrations. […] A similar finding was observed when the CaM/C2 interaction was subjected to competition by C2 or N2 (Fig. 7E).
Proteins were expressed in E. coli, affinity purified and biotinylated if applicable (for details see Methods S1). For protein interaction measurements, a proximity assay system based on the AlphaScreen technology (PerkinElmer) was used (see Methods S1). […] After incubation for 90 min at room temperature, the AlphaScreen output signal was recorded in a Fusion alpha FP instrument (PerkinElmer) at 2 s reading time per well. […]

The next series deals with CaM/C2 complex. The series is described as follows: AlphaScreen competition, C2-Flag/CaM-biotin complex. Particulars: C2-Flag and CaM-biotin at 100 µM Ca^2+; untagged competitor; AlphaScreen pH 7.4, 90 min room temperature. The class given is binding, human. As for the experimental part: as §3, §2
Proteins used for competition experiments were subjected to gel filtration into the assay buffer using a PD-10 column (Amersham).

The test system of another series is N2. Description: Gel filtration, N2 dimerization. The class given is physicochemical, human. The settings on record: non-denaturing, 50 mM sodium phosphate pH 7.0, 200 mM KCl. The procedure: Purified proteins or gel filtration standard (BioRad) were loaded onto a Bio-Sil 250 (BioRad) size exclusion chromatography column and eluted with a buffer containing 50 mM sodium phosphate, pH 7.0 and 200 mM KCl. The elution profile was recorded by continuous absorption measurement at 280 nm.

The next series deals with wild type N2 fragment. The series is described as follows: AlphaScreen N-terminal homologous interaction, wild type N2. It is filed as binding, human. Particulars: nominally Ca^2+-free buffers. The procedure: (§4) Proteins were expressed in E. coli, affinity purified and biotinylated if applicable (for details see Methods S1). For protein interaction measurements, a proximity assay system based on the AlphaScreen technology (PerkinElmer) was used (see Methods S1). […] Assay buffer conditions were 50 mM Tris, pH 7.4, 100 mM KCl, and 0.1% BSA. After incubation for 90 min at room temperature, the AlphaScreen output signal was recorded in a Fusion alpha FP instrument (PerkinElmer) at 2 s reading time per well. AlphaScreen signals are given as mean±SEM in counts per second (cps) units.

In the next series the test system is N2 mutant WIA. Description: AlphaScreen N-terminal homologous interaction, N2 mutant WIA. The class given is binding, human. The settings on record: nominally Ca^2+-free buffers. As for the experimental part:
as §4

Turning to “N2: N-terminal TRPV4 fragment, residues 79-138 (VPNPIDLLESTLYESSVVPGPKKAPMDSLFDYGTYRHHSSDNKRWRKKIIEKQPQSPKAP; also: Flag tag; UniProt Q9HBA0 79-138, looked up, fragment)”, the “interaction with C2” value in the series with TRPV4 C2 fragment is “interdomain interaction could also be shown”. In addition, the IC50 was 166 nM in the series on P2/C2 complex and 522 nM in the series with CaM/C2 complex. The oligomeric state result with N2 is recorded as “a single peak was detected at a size that corresponds to the dimeric form; also recorded: monophasic elution profile with an apparent molecular size that corresponds with a dimeric form of the protein”.

For “P2: N-terminal CaM binding peptide of TRPV4, residues 117-136”, the “binding of P2 to wild type N2” value in the series on wild type N2 fragment is “bound strongly”. The “binding of P2 to N2 mutant WIA” value in the series with N2 mutant WIA was “bound strongly”.
